Results taken from patent US20230355596A1, “COMPOSITIONS AND METHODS OF USING NMDAR INHIBITORS AND KINASE INHIBITORS TO TREAT LIVER CANCER” (The University of Hong Kong, priority 2022, published 2023).
Read-outs that look alike come from different tables or passages of the source.

Tests used:
[1] = tested on: patient-derived xenografts; assay: Limiting dilution and serial transplantation into secondary mouse recipients; type: in vivo
Method: 5×10^5 MHCC97L cells, 3.5×10^5 cells (for PDX1) and 1×10^5 cells (for PDX2) dissociated from HCC patient derived xenograft (PDX), were injected subcutaneously into the left flank of 4 to 5-week-old male BALB/c nude mice and NOD/SCID mice, respectively. 1×10^4 RIL-175 cells were injected into the right median lobe of the livers from 9 to 12-week-old male C57BL/6N mice. Size of subcutaneously xenografted tumors was measured by an external caliper and tumor volume was estimated by the equation: Volume=½ (Length×Width^2), where the length and width represent the largest and smallest diameters, respectively. Drug administration began when the subcutaneous tumor reached ˜0.05 cm3 in size or at day 5 post-injection (for RIL-175 cells), at which point mice were divided into four groups randomly for daily treatment with DMSO, ifenprodil (20 mg/kg/day, intraperitoneally), sorafenib (28 mg/kg/day, orally), or the combination. Ifenprodil and sorafenib were purchased from Selleckchem (#54091) and LC laboratories (#S-8502), respectively. The drug treatment was started after grouping, and lasted for 21 days. Tumor volume and body weight of each mouse were then measured every two days. The estimated tumor volume served as a guide for determining the day when the mice were sacrificed to take actual measurements on the resected tumors. The mice were sacrificed, and the tumor tissues were collected at the end of treatment. Part of the tumor tissues was snap-frozen in liquid nitrogen for protein extraction and immunoblot analysis. Part of the tissues was fixed in 4% paraformaldehyde (PFA) at room temperature for histological staining. The remaining tissues were dissociated into single cells for the limiting dilution spheroid formation assay. To evaluate the tumor-initiating and self-renewal abilities of the drug-treated tumors derived from MHCC97L cells and PDX1 in vivo, limiting dilution and serial transplantation assays were performed. 500, 1,000, 5,000, 10,000, 50,000 cells dissociated from the residual tumor tissues were injected subcutaneously into either flank of 4-5 week-old mice. No drug treatment was further applied. The mice were checked every two days, and tumor incidence and latency were recorded. To evaluate HCC metastases, 4×10^4 RIL-175 cells were injected through tail vein into 6- to 8-week-old male nude mice. Drug administration began at day 5 post-injection, and daily treatment with DMSO, ifenprodil (20 mg/kg/day, intraperitoneally), sorafenib (28 mg/kg/day, orally), or the combination was applied for 10 days before resection of lung tumors. At five and twelve days after the tail-vein injection, the mice were administered 100 mg/kg D-luciferin via peritoneal injection for bioluminescent imaging (using the PE IVIS Spectrum in vivo imaging system) to monitor the lung metastasis.
To determine the efficacy of the drug combination of IFEN and SOR in vivo, MHCC97L cell- and HCC patient-derived xenografts were implanted into mice. […] Briefly, HCC patient-derived xenograft was subcutaneously injected in NOD/SCID mice and treated with 20 mg/kg ifenprodil, 28 mg/kg sorafenib, or combination of ifenprodil and sorafenib, for 21 days. Protein lysates were collected from the resected tumors and analyzed by Western blot. […] Spheroid formation assay was performed on cells being harvested from the same residual xenografts to evaluate their self-renewal ability. […] Combined treatment of ifenprodil and sorafenib decreased the repropagation capability of HCC cells in vivo. Residual tumor cells were harvested from the drug(s)-treated patient-derived xenografts and 50,000, 10,000, 5,000, 1,000, and 500 cells were transplanted into secondary NOD/SCID mouse recipients (n=6 per group). Average tumor latency and incidence were recorded, and tumor-initiating cell frequency was calculated.

MHCC97L cells = assay: MTT cell viability assay and drug interaction analysis; type: cell-based, human; settings: single drug
HCC organoids = assay: Limiting dilution spheroid formation assay on organoids; type: cell-based, human; settings: 20 μM ifenprodil and 8 μM sorafenib, 3 days
Method: Resuspended cells were cultured in DMEM/F12 (ThermoFisher Scientific) medium containing 0.25% methylcellulose (Sigma-Aldrich), 20 ng/ml EGF (Sigma-Aldrich), 10 ng/ml FGF (Sigma-Aldrich), 4 μg/ml insulin (Sigma-Aldrich), 1% B27 (ThermoFisher Scientific), and 1% antibiotic-antimycotic (ThermoFisher Scientific). Serial dilution of cells (5, 10, 20, 50, and 100 cells from the HCC cell lines and cells dissociated from the xenografts; 10, 20, 50, 100, 200 cells from the HCC organoids) were seeded onto a 96-well plate in 6 replicates for each dilution. Fresh medium was replenished every two days. The number of wells with spheroids formed were counted after a 10-day culture. The stem cell frequency was calculated using ELDA: Extreme Limiting Dilution Analysis (internet site bioinf.wehi.edu.au/software/elda/). In the data plots, the y-axis “fraction nonresponding” refers to the log proportion of number of cultures not responding to form spheroids, while the x-axis “dose (number of cells)” refers to the number of cells used in each culture. The slope of the line is the log-active cell fraction, representing the estimated active cell frequency in forming spheroids, and the dotted lines gives the 95% confidence interval.

RIL-175 cells = assay: Lung metastasis model (tail vein injection); type: in vivo, mouse; settings: nude mice, 20 mg/kg ifenprodil, 28 mg/kg sorafenib, 10 days
NMDAR subunits = settings: cited from earlier work
HCC patients [2] = settings: cited from earlier work
HCC patients [3] = settings: Asian study; cited from earlier work
HCC patients [4] = settings: phase III, first line; cited from earlier work
[5] = 50,000 cells transplanted, n=6 per group
[6] = 50,000 cells transplanted, secondary NOD/SCID recipients

| Compound | Average tumor latency ([1]; 500 cells transplanted) | Tumor incidence ([1]; 500 cells transplanted) | Average tumor latency ([1]; 1,000 cells transplanted) | Tumor incidence ([1]; 1,000 cells transplanted) | Average tumor latency ([1]; 5,000 cells transplanted) | Tumor incidence ([1]; 5,000 cells transplanted) | Average tumor latency ([1]; 10,000 cells transplanted) | Tumor incidence ([1]; 10,000 cells transplanted) | Tumor incidence [1, 5] | Average tumor latency [1, 6] | ability of HCC organoids to assemble tumor spheroids (HCC organoids) | metastases of mouse HCC cells to form tumors in the lung (RIL-175 cells) | also measured |
| --- | --- | --- | --- | --- | --- | --- | --- | --- | --- | --- | --- | --- | --- |
| CC(C(O)c1ccc(O)cc1)N1CCC(Cc2ccccc2)CC1 (stereo not shown) [Ifenprodil, ifenprodil] | 33 days | 4/6 | 28.33 days | 6/6 | 31.33 days | 6/6 | 21 days | 6/6 | 6/6 | 24 days | not either drug alone | did not affect the metastases | HCC growth, NMDAR inhibitor alone (MHCC97L cells): did not significantly suppress; NMDAR subunit selectivity (NMDAR subunits): more selective for NMDAR1/NMDAR2B subunits; toxicity / safety as therapeutic agent (NMDAR subunits): tested safe in human; toxicity / safety as therapeutic agent (NMDAR subunits; listed as IFEN): known safety history |
| CNC(=O)c1cc(Oc2ccc(NC(=O)Nc3ccc(Cl)c(C(F)(F)F)c3)cc2)ccn1 [Sorafenib, sorafenib] | 34 days | 3/6 | 29 days | 6/6 | 21.67 days | 6/6 | 21.33 days | 6/6 | 6/6 | 22.33 days | not either drug alone | did not affect the metastases | median overall survival (HCC patients [2]; SHARP trial): 10.7 months; tolerability (HCC patients [2]; phase III trials): generally well tolerated; median overall survival (HCC patients [3]): 6.5 months; cancer stemness in the HCC mouse models after treatment ([1]; HCC mouse models): increased cancer stemness; Median survival (HCC patients [4]): 9.9 months; discontinuation rate (HCC patients [4]): 33% |
